{
  "source": "patent US20250026762A1",
  "about": "“FUSED PYRAZOLE UREA ANALOGS AS GLUCOSYLCERAMIDE SYNTHASE INHIBITORS” (Merck Sharp & Dohme LLC, priority 2021, published 2025)",
  "note": "pEC50: −log10 of the molar value.",
  "data": [
    {"target": "glucosylceramide synthase (GCS) enzyme in Golgi preparations from human A375 malignant melanoma skin cells (Homo sapiens (Human), UniProt Q16739)", "sequence (Q16739 whole entry)": "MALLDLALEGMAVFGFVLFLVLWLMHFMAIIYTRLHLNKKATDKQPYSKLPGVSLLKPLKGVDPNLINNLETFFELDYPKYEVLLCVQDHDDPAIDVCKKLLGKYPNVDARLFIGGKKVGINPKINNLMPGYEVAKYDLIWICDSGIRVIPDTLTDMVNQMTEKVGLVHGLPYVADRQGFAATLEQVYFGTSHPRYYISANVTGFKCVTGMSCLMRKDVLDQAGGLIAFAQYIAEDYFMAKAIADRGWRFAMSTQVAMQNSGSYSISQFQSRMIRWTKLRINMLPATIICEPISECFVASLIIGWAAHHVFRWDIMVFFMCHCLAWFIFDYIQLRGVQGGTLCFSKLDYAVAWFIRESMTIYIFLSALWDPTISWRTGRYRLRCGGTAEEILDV", "experiment": "UDP-Glo glucosylceramide synthase biochemical assay", "settings": "1.5 μg crude golgi preparation; C6 ceramide and UDP-glucose at 2×Km; 20 h incubation at room temperature; luminescence", "text": "UDP-Glo™ Glucosylceramide Synthase Biochemical Assay\nA UDP-Glo™ glucosylceramide synthase biochemical assay was utilized to evaluate the effect of test compounds on the activity of endogenous levels of GCS enzyme contained within Golgi preparations isolated from human A375 malignant melanoma skin cells. The UDP-Glo™ glucosylceramide synthase assay uses UDP-Glucose as a nucleotide-glycosyl donor and ceramide as substrate acceptor molecules. In the reaction, glucosylceramide synthase (GCS) transfers glucose from UDP-Glucose to ceramide. Glucosylceramide and UDP are released as products.\nUsing Promega's UDP-Glo™ Glycosyltransferase assay kit (Promega Corporation, Madison, WI, USA (Promega)), GCS activity was indirectly measured by detecting the amount of UDP produced. An aliquot of GCS enzyme (1.5 μg crude golgi preparation, total protein) and titrated test compound were aliquoted to each well and incubated for 30 minutes at room temperature. Substrate mixture was prepared by mixing C6 ceramide (Avanti Polar Lipids, Alabaster, AL USA (Avanti)) (micelles prepared at 0.6 mM in 0.6 mM DOPC) and UDP-glucose (20 μM; Promega), at concentrations equivalent to 2×Km, in assay buffer (25 mM HEPES (pH 7.5), 50 mM KCl, 5 mM MgCl2). An equivalent volume of substrate mixture was then added to each well. Following a 20 h incubation at room temperature to allow for GCS turnover of substrate, an equal volume of UDP detection reagent (Promega) was added to each well and incubated for an additional 75 minutes at room temperature to simultaneously convert the accumulated UDP product into ATP and generate light in a luciferase reaction. The generated light was detected using a luminometer. […] luminescence values (RLUs) were normalized to mean “min” and “max” effects, as determined on each plate. “Min” was defined as the mean of the values of the wells treated with vehicle (DMSO) and which represent 0% inhibition; “max” was defined as the mean of the values of the wells treated with a reference inhibitor and which represent the 100% effect. Values for % Emax and EC50 were determined by best-fitting the normalized data to a curve in Activity Base along a four-parameter logistic nonlinear regression (4PL) model (based on the Levenberg-Marquardt algorithm and defined by the equation below): […]\nwhere: n is 4PMin (bottom of the curve); m is 4PMax (top of the curve); i is IP (inflection point of curve); andp is slope. See Levenberg, K., “A Method for the Solution of Certain Problems in Least Squares”, Quart. Appl. Math. 2, (1944), pp 164-168 and Marquardt, D., “An Algorithm for Least Squares Estimation on Nonlinear Parameters”, SIAM J. Appl. Math. 11, (1963) pp 431-441.", "values": [
      {"smiles": "O=C(N1CCN2CCC1CC2)n1nc(C23CCCC2C3)c2c1CCC2", "note": "(single isomer, unassigned) [Compound 9, R or S-(3-(bicyclo[3.1.0]hexan-1-yl)-5,6-dihydrocyclopenta[c]pyrazol-1(4H)-yl)(1,4-diazabicyclo[3.2.2]nonan-4-yl)methanone]", "pEC50": 8.62},
      {"smiles": "O=C(N1CCN2CCC1CC2)n1nc(-c2ccc(F)cc2)c2c1C1CC1CC2", "note": "(single isomer, unassigned) [Compound 10]", "pEC50": 9.52},
      {"smiles": "O=C(N1CCN2CCC1CC2)n1nc(-c2ccc(F)cc2)c2c1CC1CC21", "note": "(single isomer, unassigned) [Compound 15, (R,R) or (S,S)--(1,4-diazabicyclo[3.2.2]nonan-4-yl)(3-(4-fluorophenyl)-3b,4,4a,5-tetrahydro-1H-cyclopropa[3,4]cyclopenta[1,2-c]pyrazol-1-yl)methanone]", "pEC50": 10.00},
      {"smiles": "CC1CCc2c(-c3ccc(F)cc3)nn(C(=O)N3CCN4CCC3CC4)c21", "note": "(single isomer, unassigned) [Compound 16, R or S-(1,4-diazabicyclo[3.2.2]nonan-4-yl)(3-(4-fluorophenyl)-6-methyl-5,6-dihydrocyclopenta[c]pyrazol-1(4H)-yl)methanone]", "pEC50": 9.40},
      {"smiles": "O=C(N1CCN2CCC1CC2)n1nc(-c2ccc(F)cc2)c2c1COCC2", "note": "[Compound 1, 1,4-diazabicyclo[3.2.2]nonan-4-yl(3-(4-fluorophenyl)-4,5-dihydropyrano[3,4-c]pyrazol-1(7H)-yl)methanone]", "pEC50": 8.29},
      {"smiles": "O=C(N1CCN2CCC1CC2)n1nc(-c2ccc(OC(F)F)c(Cl)c2)c2c1COCC2", "note": "[Compound 2, 1,4-diazabicyclo[3.2.2]nonan-4-yl(3-(3-chloro-4-(difluoromethoxy)phenyl)-4,5-dihydropyrano[3,4-c]pyrazol-1(7H)-yl)methanone]", "pEC50": 8.54},
      {"smiles": "COc1ccc(-c2nn(C(=O)N3CCN4CCC3CC4)c3c2CCOC3)cc1Cl", "note": "[Compound 3, 1,4-diazabicyclo[3.2.2]nonan-4-yl(3-(3-chloro-4-methoxyphenyl)-4,5-dihydropyrano[3,4-c]pyrazol-1(7H)-yl)methanone]", "pEC50": 8.85},
      {"smiles": "COc1ccc(-c2nn(C(=O)N3CCN4CCC3CC4)c3c2CCC3)cc1", "note": "[Compound 4, 1,4-diazabicyclo[3.2.2]nonan-4-yl-[3-(4-methoxyphenyl)-5,6-dihydro-4H-cyclopenta[c]pyrazol-1-yl]methanone]", "pEC50": 9.70},
      {"smiles": "O=C(N1CCN2CCC1CC2)n1nc(-c2ccc(OC(F)F)cc2)c2c1CCC2", "note": "[Compound 5, 1,4-diazabicyclo[3.2.2]nonan-4-yl-[3-[4-(difluoromethoxy)phenyl]-5,6-dihydro-4H-cyclopenta[c]pyrazol-1-yl]methanone]", "pEC50": 9.52},
      {"smiles": "COc1ncc(-c2nn(C(=O)N3CCN4CCC3CC4)c3c2CCC3)cc1Cl", "note": "[Compound 6, [3-(5-chloro-6-methoxy-3-pyridyl)-5,6-dihydro-4H-cyclopenta[c]pyrazol-1-yl]-(1,4-diazabicyclo[3.2.2]nonan-4-yl)methanone]", "pEC50": 9.40},
      {"smiles": "O=C(N1CCN2CCC1CC2)n1nc(-c2ccc(F)c(Cl)c2)c2c1COCC2", "note": "[Compound 7, [3-(3-chloro-4-fluoro-phenyl)-5,7-dihydro-4H-pyrano[3,4-c]pyrazol-1-yl]-(1,4-diazabicyclo[3.2.2]nonan-4-yl)methanone]", "pEC50": 9.00},
      {"smiles": "COc1ncc(-c2nn(C(=O)N3CCN4CCC3CC4)c3c2C[C@@H]2C[C@H]32)cc1Cl", "note": "[Compound 8, (1,4-diazabicyclo[3.2.2]nonan-4-yl)((4aS,5aS)-3-(5-chloro-6-methoxypyridin-3-yl)-4,4a,5,5a-tetrahydro-1H-cyclopropa[4,5]cyclopenta[1,2-c]pyrazol-1-yl)methanone]", "pEC50": 10.00},
      {"smiles": "O=C(N1CCN2CCC1CC2)n1nc(-c2ccc(F)cc2)c2c1[C@H]1C[C@H]1C2", "note": "[Compound 11, (1,4-diazabicyclo[3.2.2]nonan-4-yl)((4aS,5aS)-3-(4-fluorophenyl)-4,4a,5,5a-tetrahydro-1H-cyclopropa[4,5]cyclopenta[1,2-c]pyrazol-1-yl)methanone]", "pEC50": 10.00},
      {"smiles": "O=C(N1CCN2CCC1CC2)n1nc(-c2ccc(F)cc2)c2c1CCC2", "note": "[Compound 12, 1,4-diazabicyclo[3.2.2]nonan-4-yl-[3-(4-fluorophenyl)-5,6-dihydro-4H-cyclopenta[c]pyrazol-1-yl]methanone]", "pEC50": 9.52},
      {"smiles": "O=C(N1CCN2CCC1CC2)n1nc(-c2ccc(F)cc2)c2c1CCOC2", "note": "[Compound 13, 1,4-diazabicyclo[3.2.2]nonan-4-yl-[3-(4-fluorophenyl)-6,7-dihydro-4H-pyrano[4,3-c]pyrazol-1-yl]methanone]", "pEC50": 8.39},
      {"smiles": "O=C(N1CCN2CCC1CC2)n1nc(-c2ccc(F)cc2)c2c1C1CCC2C1", "note": "[Compound 14, (R,R) and (S,S)-(1,4-diazabicyclo[3.2.2]nonan-4-yl)(3-(4-fluorophenyl)-4,5,6,7-tetrahydro-1H-4,7-methanoindazol-1-yl)methanone]", "pEC50": 8.92},
      {"smiles": "CC1(C)COc2c(-c3ccc(F)cc3)nn(C(=O)N3CCN4CCC3CC4)c21", "note": "[Compound 17, (1,4-diazabicyclo[3.2.2]nonan-4-yl)(3-(4-fluorophenyl)-6,6-dimethyl-5,6-dihydro-1H-furo[3,2-c]pyrazol-1-yl)methanone]", "pEC50": 8.00},
      {"smiles": "CC1(C)Cc2c(c(-c3ccc(F)cc3)nn2C(=O)N2CCN3CCC2CC3)CO1", "note": "[Compound 18, (1,4-diazabicyclo[3.2.2]nonan-4-yl)(3-(4-fluorophenyl)-6,6-dimethyl-6,7-dihydropyrano[4,3-c]pyrazol-1(4H)-yl)methanone]", "pEC50": 8.01},
      {"smiles": "O=C(N1CCN2CCC1CC2)n1nc(-c2ccc(F)cc2)c2c1CCC(F)(F)C2", "note": "[Compound 19, (1,4-diazabicyclo[3.2.2]nonan-4-yl)(5,5-difluoro-3-(4-fluorophenyl)-4,5,6,7-tetrahydro-1H-indazol-1-yl)methanone]", "pEC50": 8.09},
      {"smiles": "O=C(N1CCN2CCC1CC2)n1nc(-c2ccc(F)cc2)c2c1CC(F)(F)C2", "note": "[Compound 20, (1,4-diazabicyclo[3.2.2]nonan-4-yl)(5,5-difluoro-3-(4-fluorophenyl)-5,6-dihydrocyclopenta[c]pyrazol-1(4H)-yl)methanone]", "pEC50": 8.33},
      {"smiles": "O=C(N1CCN2CCC1CC2)n1nc(-c2ccc(F)cc2)c2c1CC(O)C2", "note": "(stereo not drawn) [Compound 21, R and S-(1,4-diazabicyclo[3.2.2]nonan-4-yl)(3-(4-fluorophenyl)-5-hydroxy-5,6-dihydrocyclopenta[c]pyrazol-1(4H)-yl)methanone]", "pEC50": 7.71},
      {"smiles": "Cn1ncc2ccc(-c3nn(C(=O)N4CCN5CCC4CC5)c4c3CCC4)cc21", "note": "[Compound 22, 1,4-diazabicyclo[3.2.2]nonan-4-yl-[3-(1-methylindazol-6-yl)-5,6-dihydro-4H-cyclopenta[c]pyrazol-1-yl]methanone]", "pEC50": 8.20},
      {"smiles": "O=C(N1CCN2CCC1CC2)n1nc(-c2ccc(Cl)cn2)c2c1COCC2", "note": "[Compound 23, (1,4-diazabicyclo[3.2.2]nonan-4-yl)(3-(5-chloropyridin-2-yl)-4,7-dihydropyrano[3,4-c]pyrazol-1(5H)-yl)methanone]", "pEC50": 8.43},
      {"smiles": "CC1(C)CCCN(c2nn(C(=O)N3CCN4CCC3CC4)c3c2CCC3)C1", "note": "[Compound 24, (1,4-diazabicyclo[3.2.2]nonan-4-yl)(3-(3,3-dimethylpiperidin-1-yl)-5,6-dihydrocyclopenta[c]pyrazol-1(4H)-yl)methanone]", "pEC50": 8.11},
      {"smiles": "O=C(N1CCN2CCC1CC2)n1nc(-n2nc(C(F)(F)F)ccc2=O)c2c1CCOC2", "note": "[Compound 25, 2-(1-(1,4-diazabicyclo[3.2.2]nonane-4-carbonyl)-1,4,6,7-tetrahydropyrano[4,3-c]pyrazol-3-yl)-6-(trifluoromethyl)pyridazin-3(2H)-one]", "pEC50": 7.57},
      {"smiles": "O=C(N1CCN2CCC1CC2)n1nc(OC2CCCC2)c2c1CCC2", "note": "[Compound 26, (1,4-diazabicyclo[3.2.2]nonan-4-yl)(3-(cyclopentyloxy)-5,6-dihydrocyclopenta[c]pyrazol-1(4H)-yl)methanone]", "pEC50": 7.63},
      {"smiles": "O=C(N1CCN2CCC1CC2)n1nc(-c2cccc(Cl)c2F)c2c1COCC2", "note": "[Compound 27]", "pEC50": 8.80},
      {"smiles": "Cc1ccccc1-c1nn(C(=O)N2CCN3CCC2CC3)c2c1CCOC2", "note": "[Compound 28, (1,4-diazabicyclo[3.2.2]nonan-4-yl)(3-(o-tolyl)-4,7-dihydropyrano[3,4-c]pyrazol-1(5H)-yl)methanone]", "pEC50": 8.18}
    ]}
  ]
}
